Data from patent US12077503B2, “Substituted cyclic amides and their use as herbicides” (FMC CORPORATION, priority 2015, dated 2024).

Key:
Format in all cases: in vivo
[1] = tested on: redroot pigweed (Amaranthus retroflexus); assay: Test G Post-Emergence Protocol; conditions: Amaranthus retroflexus, post-emergence, 312 h, read-out: Pigweed, Redroot damage rating; for pest or weed control at 15.625 g/ha: 15.625 g ai/ha, evaluated after 13 days (100=total damage to plant; 0=no damage to plant); for pest or weed control at 62.5 g/ha: 62.5 g ai/ha; for pest or weed control at 62.5 g/ha / pest or weed control at 250 g/ha: evaluated after 13 days, 100=total damage to plant, 0=no damage to plant; for pest or weed control at 250 g/ha: 250 g ai/ha
Outline: (§1)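 Damage was rated 13 days after treatment from 0 (none) to 100 (plant killed). Compound was applied as a spray at 15.625, 62.5 or 250 g/ha in 50:50 acetone/water containing 0.5% Tween 20, onto 8-day-old potted plants kept in a glasshouse (24/16 °C, 14 h light, 65% humidity).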

[2] = tested on: barnyardgrass (Echinochloa crus-galli); assay: Test G Post-Emergence Protocol; conditions: Echinochloa crus-galli, post-emergence, 312 h, read-out: Barnyardgrass damage rating; for pest or weed control at 15.625 g/ha: 15.625 g ai/ha, evaluated after 13 days (100=total damage to plant; 0=no damage to plant); for pest or weed control at 62.5 g/ha: 62.5 g ai/ha; for pest or weed control at 62.5 g/ha / pest or weed control at 250 g/ha: evaluated after 13 days, 100=total damage to plant, 0=no damage to plant; for pest or weed control at 250 g/ha: 250 g ai/ha
Outline: as §1

[3] = tested on: ivy-leaved morning glory (Ipomoea hederacea); assay: Test G Post-Emergence Protocol; conditions: Ipomoea, post-emergence, 312 h, read-out: Morningglory, Ivy-leaved damage rating; for pest or weed control at 15.625 g/ha: 15.625 g ai/ha, evaluated after 13 days (100=total damage to plant; 0=no damage to plant); for pest or weed control at 62.5 g/ha: 62.5 g ai/ha; for pest or weed control at 62.5 g/ha / pest or weed control at 250 g/ha: evaluated after 13 days, 100=total damage to plant, 0=no damage to plant; for pest or weed control at 250 g/ha: 250 g ai/ha
Outline: as §1

[4] = tested on: corn (Zea mays); assay: Test G Post-Emergence Protocol; conditions: Zea mays, post-emergence, 312 h, read-out: Corn damage rating; for plant injury at 15.625 g/ha: 15.625 g ai/ha, evaluated after 13 days (100=total damage to plant; 0=no damage to plant); for plant injury at 62.5 g/ha: 62.5 g ai/ha; for plant injury at 62.5 g/ha / plant injury at 250 g/ha: evaluated after 13 days, 100=total damage to plant, 0=no damage to plant; for plant injury at 250 g/ha: 250 g ai/ha
Outline: as §1

[5] = tested on: velvetleaf (Abutilon theophrasti); assay: Test G Post-Emergence Protocol; conditions: Abutilon theophrasti, post-emergence, 312 h, read-out: Velvetleaf damage rating; for pest or weed control at 15.625 g/ha: 15.625 g ai/ha, evaluated after 13 days (100=total damage to plant; 0=no damage to plant); for pest or weed control at 62.5 g/ha: 62.5 g ai/ha; for pest or weed control at 62.5 g/ha / pest or weed control at 250 g/ha: evaluated after 13 days, 100=total damage to plant, 0=no damage to plant; for pest or weed control at 250 g/ha: 250 g ai/ha
Outline: as §1

[6] = tested on: giant foxtail (Setaria faberi); assay: Test G Post-Emergence Protocol; conditions: Setaria faberi, post-emergence, 312 h, read-out: Foxtail, Giant damage rating; for pest or weed control at 15.625 g/ha: 15.625 g ai/ha, evaluated after 13 days (100=total damage to plant; 0=no damage to plant); for pest or weed control at 62.5 g/ha: 62.5 g ai/ha; for pest or weed control at 62.5 g/ha / pest or weed control at 250 g/ha: evaluated after 13 days, 100=total damage to plant, 0=no damage to plant; for pest or weed control at 250 g/ha: 250 g ai/ha
Outline: as §1

[7] = tested on: redroot pigweed (Amaranthus retroflexus); assay: Test G Pre-Emergence Protocol; conditions: Amaranthus retroflexus, pre-emergence, 312 h, evaluated after 13 days; for pest or weed control at 15.625 g/ha: 15.625 g ai/ha; for pest or weed control at 15.625 g/ha / pest or weed control at 250 g/ha: read-out: Pigweed, Redroot damage rating (100=total damage to plant; 0=no damage to plant); for pest or weed control at 62.5 g/ha: 62.5 g ai/ha, 100=total damage to plant, 0=no damage to plant, read-out: Pigweed, Redroot damage rating; for pest or weed control at 250 g/ha: 250 g ai/ha
Outline: (§2)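 Pots of seeds in standard soil were grown for one day in a glasshouse (24/16 °C day/night, 14 h light, 65% humidity), then sprayed with compound in acetone/water 50:50 with 0.5% Tween 20 at 15.625, 62.5 or 250 g/ha. Damage was scored after 13 days on a 0 (none) to 100 (total) scale.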

[8] = tested on: barnyardgrass (Echinochloa crus-galli); assay: Test G Pre-Emergence Protocol; conditions: Echinochloa crus-galli, pre-emergence, 312 h, evaluated after 13 days; for pest or weed control at 15.625 g/ha: 15.625 g ai/ha; for pest or weed control at 15.625 g/ha / pest or weed control at 250 g/ha: read-out: Barnyardgrass damage rating (100=total damage to plant; 0=no damage to plant); for pest or weed control at 62.5 g/ha: 62.5 g ai/ha, 100=total damage to plant, 0=no damage to plant, read-out: Barnyardgrass damage rating; for pest or weed control at 250 g/ha: 250 g ai/ha
Outline: as §2

[9] = tested on: ivy-leaved morning glory (Ipomoea hederacea); assay: Test G Pre-Emergence Protocol; conditions: Ipomoea, pre-emergence, 312 h, evaluated after 13 days; for pest or weed control at 15.625 g/ha: 15.625 g ai/ha; for pest or weed control at 15.625 g/ha / pest or weed control at 250 g/ha: read-out: Morningglory, Ivy-leaved damage rating (100=total damage to plant; 0=no damage to plant); for pest or weed control at 62.5 g/ha: 62.5 g ai/ha, 100=total damage to plant, 0=no damage to plant, read-out: Morningglory, Ivy-leaved damage rating; for pest or weed control at 250 g/ha: 250 g ai/ha
Outline: as §2

[10] = tested on: corn (Zea mays); assay: Test G Pre-Emergence Protocol; conditions: Zea mays, pre-emergence, 312 h, evaluated after 13 days; for plant injury at 15.625 g/ha: 15.625 g ai/ha; for plant injury at 15.625 g/ha / plant injury at 250 g/ha: read-out: Corn damage rating (100=total damage to plant; 0=no damage to plant); for plant injury at 62.5 g/ha: 62.5 g ai/ha, 100=total damage to plant, 0=no damage to plant, read-out: Corn damage rating; for plant injury at 250 g/ha: 250 g ai/ha
Outline: as §2

[11] = tested on: velvetleaf (Abutilon theophrasti); assay: Test G Pre-Emergence Protocol; conditions: Abutilon theophrasti, pre-emergence, 312 h, evaluated after 13 days; for pest or weed control at 15.625 g/ha: 15.625 g ai/ha; for pest or weed control at 15.625 g/ha / pest or weed control at 250 g/ha: read-out: Velvetleaf damage rating (100=total damage to plant; 0=no damage to plant); for pest or weed control at 62.5 g/ha: 62.5 g ai/ha, 100=total damage to plant, 0=no damage to plant, read-out: Velvetleaf damage rating; for pest or weed control at 250 g/ha: 250 g ai/ha
Outline: as §2

[12] = tested on: giant foxtail (Setaria faberi); assay: Test G Pre-Emergence Protocol; conditions: Setaria faberi, pre-emergence, 312 h, evaluated after 13 days; for pest or weed control at 15.625 g/ha: 15.625 g ai/ha; for pest or weed control at 15.625 g/ha / pest or weed control at 250 g/ha: read-out: Foxtail, Giant damage rating (100=total damage to plant; 0=no damage to plant); for pest or weed control at 62.5 g/ha: 62.5 g ai/ha, 100=total damage to plant, 0=no damage to plant, read-out: Foxtail, Giant damage rating; for pest or weed control at 250 g/ha: 250 g ai/ha
Outline: as §2

Row | SMILES | pest or weed control at 15.625 g/ha [1] | pest or weed control at 62.5 g/ha [1] | pest or weed control at 250 g/ha [1] | pest or weed control at 15.625 g/ha [2] | pest or weed control at 62.5 g/ha [2] | pest or weed control at 250 g/ha [2] | pest or weed control at 15.625 g/ha [3] | pest or weed control at 62.5 g/ha [3] | pest or weed control at 250 g/ha [3] | plant injury at 15.625 g/ha [4] | plant injury at 62.5 g/ha [4] | plant injury at 250 g/ha [4] | pest or weed control at 15.625 g/ha [5] | pest or weed control at 62.5 g/ha [5] | pest or weed control at 250 g/ha [5] | pest or weed control at 15.625 g/ha [6] | pest or weed control at 62.5 g/ha [6] | pest or weed control at 250 g/ha [6] | pest or weed control at 15.625 g/ha [7] | pest or weed control at 62.5 g/ha [7] | also measured
1 | Cc1ccc(C2CN(C)C(=O)C2C(=O)Nc2cccc(F)c2F)cc1C#N (stereo not drawn) [Compound 1687] | 40% | 40% | 50% | 0% | 50% | 80% | 20% | 60% | 70% | 10% | 40% | 90% | 40% | 40% | 50% | 60% | 80% | 80% | 0% | 10% | pest or weed control at 250 g/ha [7]: 30%; pest or weed control at 15.625 g/ha [8]: 40%; pest or weed control at 62.5 g/ha [8]: 70%; pest or weed control at 250 g/ha [8]: 80%; pest or weed control at 15.625 g/ha [9]: 0%; pest or weed control at 62.5 g/ha [9]: 40%; pest or weed control at 250 g/ha [9]: 50%; plant injury at 15.625 g/ha [10]: 0%; plant injury at 62.5 g/ha [10]: 40%; plant injury at 250 g/ha [10]: 90%; pest or weed control at 15.625 g/ha [11]: 0%; pest or weed control at 62.5 g/ha [11]: 0%; pest or weed control at 250 g/ha [11]: 10%; pest or weed control at 15.625 g/ha [12]: 60%; pest or weed control at 62.5 g/ha [12]: 70%; pest or weed control at 250 g/ha [12]: 90%
2 | CCS(=O)(=O)c1ccccc1NC(=O)[C@H]1C(=O)N(C)C[C@@H]1c1ccc(C(F)(F)F)cc1 (racemic) [Compound 1664] | 20% | 80% | 80% | 0% | 60% | 70% | 0% | 20% | 30% | 0% | 40% | 80% | 0% | 10% | 20% | 60% | 80% | 80% | 0% | 20% | pest or weed control at 250 g/ha [7]: 100%; pest or weed control at 15.625 g/ha [8]: 0%; pest or weed control at 62.5 g/ha [8]: 40%; pest or weed control at 250 g/ha [8]: 80%; pest or weed control at 15.625 g/ha [9]: 0%; pest or weed control at 62.5 g/ha [9]: 0%; pest or weed control at 250 g/ha [9]: 0%; plant injury at 15.625 g/ha [10]: 0%; plant injury at 62.5 g/ha [10]: 0%; plant injury at 250 g/ha [10]: 80%; pest or weed control at 15.625 g/ha [11]: 0%; pest or weed control at 62.5 g/ha [11]: 0%; pest or weed control at 250 g/ha [11]: 20%; pest or weed control at 15.625 g/ha [12]: 30%; pest or weed control at 62.5 g/ha [12]: 70%; pest or weed control at 250 g/ha [12]: 90%
